PubChem BioAssay AID328 (DTP/NCI, 2004)
Where “and” joins values, the source holds several entries; their conditions need not be identical. Equal values may be shown once. Toxic doses and inconclusive results are not listed.

Tested on: BDF1 mice, P388 leukemia ip, median survival T/C
Assay: NCI In Vivo Anticancer Drug Screen. Data for tumor model P388 Leukemia (intraperitoneal) in B6D2F1 (BDF1) mice
Details: endpoint: median survival time, higher = longer survival
How it was run: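 Reported as T/C, where T is the survival measurement in dosed animals and C the same measurement in vehicle controls.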

[1] = dose: 12.5 mg/kg/injection, schedule: Q01DX009 (ip), vehicle: saline
[2] = dose: 25.0 mg/kg/injection, schedule: Q01DX009 (ip), vehicle: saline
[3] = dose: 25.0 mg/kg/injection, schedule: Q04DX003 (ip), vehicle: saline
[4] = dose: 50.0 mg/kg/injection, schedule: Q01DX009 (ip), vehicle: saline
[5] = dose: 50.0 mg/kg/injection, schedule: Q04DX003 (ip), vehicle: saline
[6] = dose: 100.0 mg/kg/injection, schedule: Q01DX009 (ip), vehicle: saline
[7] = dose: 100.0 mg/kg/injection, schedule: Q04DX003 (ip), vehicle: saline
[8] = dose: 50.0 mg/kg/injection, schedule: Q01DX009 (ip), vehicle: saline with Tween-80
[9] = dose: 100.0 mg/kg/injection, schedule: Q01DX009 (ip), vehicle: saline with Tween-80
[10] = dose: 200.0 mg/kg/injection, schedule: Q01DX009 (ip), vehicle: saline with Tween-80
[11] = dose: 50.0 mg/kg/injection, schedule: Q01DX009 (ip), vehicle: Klucel (hydroxypropylcellulose) (HPC)
[12] = dose: 100.0 mg/kg/injection, schedule: Q01DX009 (ip), vehicle: Klucel (hydroxypropylcellulose) (HPC)
[13] = dose: 100.0 mg/kg/injection, schedule: Q04DX003 (ip), vehicle: Klucel (hydroxypropylcellulose) (HPC)
[14] = dose: 200.0 mg/kg/injection, schedule: Q01DX009 (ip), vehicle: Klucel (hydroxypropylcellulose) (HPC)
[15] = dose: 200.0 mg/kg/injection, schedule: Q04DX003 (ip), vehicle: Klucel (hydroxypropylcellulose) (HPC)
[16] = dose: 100.0 mg/kg/injection, schedule: Q04DX003 (ip), vehicle: saline with Tween-80
[17] = dose: 200.0 mg/kg/injection, schedule: Q04DX003 (ip), vehicle: saline with Tween-80

COc1cc(C=Nc2cc(Br)c(O)c(Br)c2)ccc1N(CCCl)CCCl
T/C (dose: 3.5 mg/kg/injection, schedule: Q04DX003 (ip), vehicle: Klucel (hydroxypropylcellulose) (HPC)): 163 % of control
T/C (dose: 5.44 mg/kg/injection, schedule: Q04DX003 (ip), vehicle: Klucel (hydroxypropylcellulose) (HPC)): 150 % of control
T/C (dose: 6.2 mg/kg/injection, schedule: Q01DX009 (ip), vehicle: Klucel (hydroxypropylcellulose) (HPC)): 186 % of control
T/C (dose: 8.16 mg/kg/injection, schedule: Q04DX003 (ip), vehicle: Klucel (hydroxypropylcellulose) (HPC)): 172 % of control
T/C (dose: 9.37 mg/kg/injection, schedule: Q01DX009 (ip), vehicle: Klucel (hydroxypropylcellulose) (HPC)): 227 % of control and 259 % of control
T/C (dose: 12.37 mg/kg/injection, schedule: Q04DX003 (ip), vehicle: Klucel (hydroxypropylcellulose) (HPC)): 272 % of control and 220 % of control
T/C (dose: 14.0 mg/kg/injection, schedule: Q01DX009 (ip), vehicle: Klucel (hydroxypropylcellulose) (HPC)): 91 % of control
T/C (dose: 18.75 mg/kg/injection, schedule: Q04DX003 (ip), vehicle: Klucel (hydroxypropylcellulose) (HPC)): 265 % of control and 268 % of control and 272 % of control
T/C (dose: 28.12 mg/kg/injection, schedule: Q04DX003 (ip), vehicle: Klucel (hydroxypropylcellulose) (HPC)): 300 % of control
T/C (dose: 37.5 mg/kg/injection, schedule: Q01DX009 (ip), vehicle: Klucel (hydroxypropylcellulose) (HPC)): 90 % of control
T/C (dose: 37.5 mg/kg/injection, schedule: Q04DX003 (ip), vehicle: Klucel (hydroxypropylcellulose) (HPC)): 113 % of control

C=CC12COC(=O)C(=C)C1C(O)C(C(=C)C(=O)OC)C(O)C2 (stereo not given)
T/C (dose: 0.5 mg/kg/injection, schedule: Q01DX010 (ip), vehicle: steriod suspending solution): 100 % of control
T/C (dose: 1.0 mg/kg/injection, schedule: Q01DX010 (ip), vehicle: steriod suspending solution): 109 % of control
T/C (dose: 2.0 mg/kg/injection, schedule: Q01DX010 (ip), vehicle: steriod suspending solution): 100 % of control
T/C (dose: 4.0 mg/kg/injection, schedule: Q01DX010 (ip), vehicle: steriod suspending solution): 122 % of control
T/C (dose: 10.0 mg/kg/injection, schedule: Q01DX010 (ip), vehicle: steriod suspending solution): 109 % of control

c1ccc(CNCCN(Cc2ccccc2)Cc2ccccc2)cc1
T/C (dose: 0.78 mg/kg/injection, schedule: Q01DX009 (ip), vehicle: water): 105 % of control
T/C (dose: 1.56 mg/kg/injection, schedule: Q01DX009 (ip), vehicle: water): 106 % of control
T/C (dose: 3.12 mg/kg/injection, schedule: Q01DX009 (ip), vehicle: water): 99 % of control and 101 % of control
T/C (dose: 6.25 mg/kg/injection, schedule: Q01DX009 (ip), vehicle: water): 93 % of control and 110 % of control
T/C (dose: 12.5 mg/kg/injection, schedule: Q01DX009 (ip), vehicle: water): 110 % of control and 115 % of control
T/C (dose: 25.0 mg/kg/injection, schedule: Q01DX009 (ip), vehicle: water): 101 % of control

CN(C)Cc1c[nH]c2nccnc12
T/C (dose: 3.12 mg/kg/injection, schedule: Q01DX009 (ip), vehicle: saline): 95 % of control
T/C (dose: 6.25 mg/kg/injection, schedule: Q01DX009 (ip), vehicle: saline): 109 % of control
T/C [1]: 101 % of control
T/C [2]: 93 % of control
T/C [3]: 99 % of control
T/C [4]: 100 % of control
T/C [5]: 100 % of control and 101 % of control
T/C [6]: 100 % of control
T/C [7]: 92 % of control and 100 % of control

Cc1cc(=O)c(O)c(N(C)C)o1
T/C [8]: 95 % of control
T/C [9]: 106 % of control
T/C [10]: 102 % of control

C#CCOC(=O)NCCC
T/C [11]: 110 % of control
T/C (dose: 50.0 mg/kg/injection, schedule: Q04DX003 (ip), vehicle: Klucel (hydroxypropylcellulose) (HPC)): 95 % of control
T/C [12]: 105 % of control
T/C [13]: 104 % of control
T/C [14]: 115 % of control
T/C [15]: 104 % of control

Nc1cc2ccccc2c(O)c1O
T/C (dose: 75.0 mg/kg/injection, schedule: Q04DX003 (ip), vehicle: saline sonified): 100 % of control
T/C (dose: 150.0 mg/kg/injection, schedule: Q04DX003 (ip), vehicle: saline sonified): 111 % of control
T/C (dose: 300.0 mg/kg/injection, schedule: Q04DX003 (ip), vehicle: saline sonified): 94 % of control

N#CC(Nc1ccccc1)C1CC1c1ccccc1 (stereo not given)
T/C (dose: 12.5 mg/kg/injection, schedule: Q01DX009 (ip), vehicle: Klucel (hydroxypropylcellulose) (HPC)): 90 % of control
T/C (dose: 25.0 mg/kg/injection, schedule: Q01DX009 (ip), vehicle: Klucel (hydroxypropylcellulose) (HPC)): 90 % of control
T/C [11]: 90 % of control

COC(=O)C1(C)CC2C(C)(CCC3(C)C4=CC=C5C(=CC(=O)C(O)=C5C)C4(C)CCC23C)CC1O (stereo not given)
T/C (dose: 25.0 mg/kg/injection, schedule: Q01DX001 (ip), vehicle: saline with Tween-80): 109 % of control
T/C (dose: 50.0 mg/kg/injection, schedule: Q01DX001 (ip), vehicle: saline with Tween-80): 91 % of control
T/C (dose: 100.0 mg/kg/injection, schedule: Q01DX001 (ip), vehicle: saline with Tween-80): 104 % of control

CCCC(C(O)c1ccc(OC)cc1)C(O)(C(F)(F)F)C(F)(F)F (stereo not given)
T/C (dose: 100.0 mg/kg/injection, schedule: Q04DX003 (ip), vehicle: other): 90 % of control
T/C (dose: 200.0 mg/kg/injection, schedule: Q04DX003 (ip), vehicle: other): 105 % of control
T/C (dose: 400.0 mg/kg/injection, schedule: Q04DX003 (ip), vehicle: other): 105 % of control

Cc1ccc(C2(C(=O)O)CCCCC2)cc1
T/C [12]: 100 % of control
T/C [13]: 109 % of control
T/C [14]: 92 % of control
T/C [15]: 104 % of control
T/C (dose: 400.0 mg/kg/injection, schedule: Q04DX003 (ip), vehicle: Klucel (hydroxypropylcellulose) (HPC)): 100 % of control

Cc1ccc(-c2nc3sccn3c2/C=N/NC(N)=S)cc1
T/C (dose: 100.0 mg/kg/injection, schedule: Q01DX001 (ip), vehicle: Klucel (hydroxypropylcellulose) (HPC)): 100 % of control
T/C (dose: 400.0 mg/kg/injection, schedule: Q01DX001 (ip), vehicle: Klucel (hydroxypropylcellulose) (HPC)): 95 % of control

c1cc(NC2CCCCC2)ccc1CN1CCOCC1
T/C (dose: 50.0 mg/kg/injection, schedule: Q01DX009 (ip), vehicle: other): 102 % of control and 109 % of control
T/C (dose: 100.0 mg/kg/injection, schedule: Q01DX009 (ip), vehicle: other): 116 % of control

CCCN(CCC)CC(O)c1cc2c(Cl)cc(Cl)cc2c2cc(C(F)(F)F)ccc12 (stereo not given)
T/C [8]: 100 % of control
T/C [9]: 100 % of control
T/C [10]: 106 % of control

CC(C(=O)O)c1ccc2c(c1)[nH]c1ccc(Cl)cc12 (stereo not given)
T/C [9]: 89 % of control
T/C [10]: 91 % of control

O=C(C=C(C(F)(F)F)C(F)(F)F)c1ccc(Br)cc1
T/C (dose: 5.56 mg/kg/injection, schedule: Q01DX009 (ip), vehicle: other): 113 % of control
T/C (dose: 8.33 mg/kg/injection, schedule: Q01DX009 (ip), vehicle: other): 113 % of control
T/C (dose: 12.5 mg/kg/injection, schedule: Q01DX009 (ip), vehicle: other): 109 % of control
T/C (dose: 18.7 mg/kg/injection, schedule: Q01DX009 (ip), vehicle: other): 109 % of control

COC1(OC)C2(Cl)CC(c3ccc(Cl)cc3)C1(Cl)C(Cl)=C2Cl (stereo not given)
T/C (dose: 50.0 mg/kg/injection, schedule: Q04DX003 (ip), vehicle: saline with Tween-80): 100 % of control
T/C [16]: 95 % of control
T/C [17]: 90 % of control

CNC(=O)c1ccc(C(=O)NC)cc1
T/C [16]: 100 % of control
T/C [17]: 100 % of control
T/C (dose: 400.0 mg/kg/injection, schedule: Q04DX003 (ip), vehicle: saline with Tween-80): 109 % of control

O=[N+]([O-])c1ccc(/C=N/c2nccs2)o1
T/C (dose: 3.12 mg/kg/injection, schedule: Q04DX003 (ip), vehicle: saline): 107 % of control
T/C (dose: 6.25 mg/kg/injection, schedule: Q04DX003 (ip), vehicle: saline): 106 % of control and 107 % of control
T/C [1]: 92 % of control
T/C (dose: 12.5 mg/kg/injection, schedule: Q04DX003 (ip), vehicle: saline): 92 % of control and 107 % of control and 115 % of control
T/C [2]: 90 % of control
T/C [3]: 107 % of control and 111 % of control and 115 % of control
T/C [4]: 94 % of control
T/C [5]: 101 % of control and 107 % of control
T/C [6]: 86 % of control
T/C [7]: 109 % of control and 110 % of control
T/C (dose: 200.0 mg/kg/injection, schedule: Q01DX009 (ip), vehicle: saline): 98 % of control

N#Cc1cccc(O)c1
T/C [8]: 104 % of control
T/C [9]: 100 % of control
T/C [10]: 109 % of control
